# Tested on: MDA-MB-231 complex spheroids, growth inhibition
# Assay: Anticancer human tumor MDA-MB-231 cell line growth inhibition [Asc];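 further: spheroids exposed to compounds for 7 days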
# Details: for IC50: curve of first compound; for viability, T/C: stronger effect = lower value
# Method in brief: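 Concentration series start at each agent's clinical Cmax, or at 10 microM when none is established, and drop in half-log steps; agents are applied alone or together to complex spheroids built with HUVEC and hMSC.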
# [1] = second compound 0.01 µM, first compound 0.00316 µM
# [2] = second compound 0.01 µM, first compound 0.01 µM
# [3] = second compound 0.01 µM, first compound 0.0316 µM
# [4] = second compound 0.01 µM, first compound 0.1 µM
# [5] = second compound 0.01 µM, first compound 0.316 µM
# [6] = second compound 0.01 µM, first compound 1 µM
# [7] = second compound 0.0316 µM, first compound 0.00316 µM
# [8] = second compound 0.0316 µM, first compound 0.01 µM
# [9] = second compound 0.0316 µM, first compound 0.0316 µM
# [10] = second compound 0.0316 µM, first compound 0.1 µM
# [11] = second compound 0.0316 µM, first compound 0.316 µM
# [12] = second compound 0.0316 µM, first compound 1 µM
# [13] = second compound 0.1 µM, first compound 0.00316 µM
# [14] = second compound 0.1 µM, first compound 0.01 µM
# [15] = second compound 0.1 µM, first compound 0.0316 µM
# [16] = second compound 0.1 µM, first compound 0.1 µM
# [17] = second compound 0.1 µM, first compound 0.316 µM
# [18] = second compound 0.1 µM, first compound 1 µM
# [19] = second compound 0.316 µM, first compound 0.00316 µM
# [20] = second compound 0.316 µM, first compound 0.01 µM
# [21] = second compound 0.316 µM, first compound 0.0316 µM
# [22] = second compound 0.316 µM, first compound 0.1 µM
# [23] = second compound 0.316 µM, first compound 0.316 µM
# [24] = second compound 0.316 µM, first compound 1 µM
# [25] = second compound 1 µM, first compound 0.00316 µM
# [26] = second compound 1 µM, first compound 0.01 µM
# [27] = second compound 1 µM, first compound 0.0316 µM
# [28] = second compound 1 µM, first compound 0.1 µM
# [29] = second compound 1 µM, first compound 0.316 µM
# [30] = second compound 1 µM, first compound 1 µM
SMILES,IC50 (second compound 0.01 µM),IC50 (second compound 0.0316 µM),IC50 (second compound 0.1 µM),IC50 (second compound 0.316 µM),IC50 (second compound 1 µM),"viability, T/C [1]","viability, T/C [2]","viability, T/C [3]","viability, T/C [4]","viability, T/C [5]","viability, T/C [6]","viability, T/C [7]","viability, T/C [9]","viability, T/C [10]","viability, T/C [15]","viability, T/C [16]","viability, T/C [21]","viability, T/C [22]","viability, T/C [27]","viability, T/C [28]",further results
CCN1CCN(Cc2ccc(Nc3ncc(F)c(-c4cc(F)c5nc(C)n(C(C)C)c5c4)n3)nc2)CC1 + CNC(C)C(=O)NC1CN(S(=O)(=O)c2cccc(S(=O)(=O)N3CCC4CCC(C(=O)NC(c5ccccc5)c5ccccc5)N4C(=O)C(NC(=O)C(C)NC)C3)c2)CCC2CCC(C(=O)NC(c3ccccc3)c3ccccc3)N2C1=O,< 3.16 nM,< 3.16 nM,< 3.16 nM,< 3.16 nM,< 3.16 nM,2.49%,2.43%,2.51%,1.88%,2.98%,2.28%,1.93%,1.38%,1.94%,1.61%,1.32%,1.17%,1.28%,1.26%,1.51%,"viability, T/C [8]: 1.53%; viability, T/C [11]: 1.87%; viability, T/C [12]: 1.71%; viability, T/C [13]: 1.19%; viability, T/C [14]: 1.19%; viability, T/C [17]: 1.44%; viability, T/C [18]: 1.16%; viability, T/C [19]: 0.98%; viability, T/C [20]: 1.26%; viability, T/C [23]: 1.38%; viability, T/C [24]: 1.15%; viability, T/C [25]: 1.1%; viability, T/C [26]: 0.95%; viability, T/C [29]: 1.22%; viability, T/C [30]: 1.35%"
Cn1ncnc1[C@H]1c2n[nH]c(=O)c3cc(F)cc(c23)N[C@@H]1c1ccc(F)cc1 + CNC(C)C(=O)NC1CN(S(=O)(=O)c2cccc(S(=O)(=O)N3CCC4CCC(C(=O)NC(c5ccccc5)c5ccccc5)N4C(=O)C(NC(=O)C(C)NC)C3)c2)CCC2CCC(C(=O)NC(c3ccccc3)c3ccccc3)N2C1=O,< 0.316 nM,< 0.316 nM,< 0.316 nM,< 0.316 nM,< 0.316 nM,2.04%,2.04%,1.45%,1.63%,–,–,1.76%,1.2%,1.22%,1.34%,1.16%,1.05%,1.11%,1.28%,1.26%,"viability, T/C (second compound 0.01 µM, first compound 0.000316 µM): 1.83%; viability, T/C (second compound 0.01 µM, first compound 0.001 µM): 2.14%; viability, T/C (second compound 0.0316 µM, first compound 0.000316 µM): 1.73%; viability, T/C (second compound 0.0316 µM, first compound 0.001 µM): 1.45%; viability, T/C [8]: 1.3%; viability, T/C (second compound 0.1 µM, first compound 0.000316 µM): 1.17%; viability, T/C (second compound 0.1 µM, first compound 0.001 µM): 1.47%; viability, T/C [13]: 0.96%; viability, T/C [14]: 1.19%; viability, T/C (second compound 0.316 µM, first compound 0.000316 µM): 1.12%; viability, T/C (second compound 0.316 µM, first compound 0.001 µM): 1.11%; viability, T/C [19]: 1.32%; viability, T/C [20]: 0.91%; viability, T/C (second compound 1 µM, first compound 0.000316 µM): 1.53%; viability, T/C (second compound 1 µM, first compound 0.001 µM): 1.2%; viability, T/C [25]: 1.23%; viability, T/C [26]: 1.23%"
O=C(c1cc(Cc2n[nH]c(=O)c3ccccc23)ccc1F)N1CCN(C(=O)C2CC2)CC1 + CNC(C)C(=O)NC1CN(S(=O)(=O)c2cccc(S(=O)(=O)N3CCC4CCC(C(=O)NC(c5ccccc5)c5ccccc5)N4C(=O)C(NC(=O)C(C)NC)C3)c2)CCC2CCC(C(=O)NC(c3ccccc3)c3ccccc3)N2C1=O,< 31.6 nM,< 31.6 nM,< 31.6 nM,< 31.6 nM,< 31.6 nM,–,–,2.12%,2.15%,2.12%,2.46%,–,1.57%,1.69%,1.25%,1.35%,1.03%,1.15%,1.05%,1.48%,"viability, T/C (second compound 0.01 µM, first compound 3.16 µM): 1.41%; viability, T/C (second compound 0.01 µM, first compound 10 µM): 1.59%; viability, T/C [11]: 1.39%; viability, T/C [12]: 1.53%; viability, T/C (second compound 0.0316 µM, first compound 3.16 µM): 1.35%; viability, T/C (second compound 0.0316 µM, first compound 10 µM): 1.61%; viability, T/C [17]: 1.63%; viability, T/C [18]: 1.07%; viability, T/C (second compound 0.1 µM, first compound 3.16 µM): 1.04%; viability, T/C (second compound 0.1 µM, first compound 10 µM): 1.01%; viability, T/C [23]: 1.4%; viability, T/C [24]: 1.07%; viability, T/C (second compound 0.316 µM, first compound 3.16 µM): 0.98%; viability, T/C (second compound 0.316 µM, first compound 10 µM): 0.83%; viability, T/C [29]: 1.17%; viability, T/C [30]: 0.97%; viability, T/C (second compound 1 µM, first compound 3.16 µM): 0.82%; viability, T/C (second compound 1 µM, first compound 10 µM): 0.96%"
O=C(c1ccc(F)c(F)c1Nc1ccc(I)cc1F)N1CC(O)([C@@H]2CCCCN2)C1 + CNC(C)C(=O)NC1CN(S(=O)(=O)c2cccc(S(=O)(=O)N3CCC4CCC(C(=O)NC(c5ccccc5)c5ccccc5)N4C(=O)C(NC(=O)C(C)NC)C3)c2)CCC2CCC(C(=O)NC(c3ccccc3)c3ccccc3)N2C1=O,< 3.16 nM,< 3.16 nM,< 3.16 nM,< 3.16 nM,< 3.16 nM,1.58%,1.82%,1.57%,1.24%,0.45%,0.19%,2%,1.23%,0.72%,0.88%,0.74%,0.9%,1.27%,1.11%,1.67%,"viability, T/C [8]: 1.64%; viability, T/C [11]: 0.39%; viability, T/C [12]: 0.17%; viability, T/C [13]: 0.99%; viability, T/C [14]: 0.94%; viability, T/C [17]: 0.5%; viability, T/C [18]: 0.25%; viability, T/C [19]: 1.14%; viability, T/C [20]: 0.91%; viability, T/C [23]: 0.57%; viability, T/C [24]: 0.2%; viability, T/C [25]: 1.64%; viability, T/C [26]: 1.24%; viability, T/C [29]: 1.13%; viability, T/C [30]: 0.21%"

# Source: PubChem BioAssay AID1963443 (Molecular Pharmacology Branch, DTP, NCI, 2024)
